Where “and” joins values, the source holds several entries; their conditions need not be identical. Identical values can stand only once. Inconclusive results and toxic doses are left out. Cut-off read from the data, not from the text of the source: active = T/C of 150% or more; inactive = T/C below 125%.
Tested on: L1210 leukemia ip in BDF1 mice, survival T/C
Test: NCI In Vivo Anticancer Drug Screen. Data for tumor model L1210 Leukemia (intraperitoneal) in B6D2F1 (BDF1) mice
Conditions: endpoint: mean survival time, higher = longer survival
Procedure, shortened: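 Transplanted-tumor mice were given test agent; controls received vehicle only. Survival readings from the two groups were divided (treated over control).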

[1] = dose: 100.0 mg/kg/injection, schedule: Q01DX009 (ip), vehicle: saline with Tween-80
[2] = dose: 200.0 mg/kg/injection, schedule: Q01DX009 (ip), vehicle: saline with Tween-80
[3] = dose: 400.0 mg/kg/injection, schedule: Q01DX009 (ip), vehicle: saline with Tween-80
[4] = dose: 100.0 mg/kg/injection, schedule: Q04DX003 (ip), vehicle: saline with Tween-80
[5] = dose: 200.0 mg/kg/injection, schedule: Q04DX003 (ip), vehicle: saline with Tween-80
[6] = dose: 400.0 mg/kg/injection, schedule: Q04DX003 (ip), vehicle: saline with Tween-80
[7] = dose: 100.0 mg/kg/injection, schedule: Q01DX009 (ip), vehicle: Klucel (hydroxypropylcellulose) (HPC)
[8] = dose: 100.0 mg/kg/injection, schedule: Q04DX003 (ip), vehicle: Klucel (hydroxypropylcellulose) (HPC)
[9] = dose: 200.0 mg/kg/injection, schedule: Q01DX009 (ip), vehicle: Klucel (hydroxypropylcellulose) (HPC)
[10] = dose: 200.0 mg/kg/injection, schedule: Q04DX003 (ip), vehicle: Klucel (hydroxypropylcellulose) (HPC)
[11] = dose: 100.0 mg/kg/injection, schedule: Q04DX002 (ip), vehicle: Klucel (hydroxypropylcellulose) (HPC)
[12] = dose: 200.0 mg/kg/injection, schedule: Q04DX002 (ip), vehicle: Klucel (hydroxypropylcellulose) (HPC)
[13] = dose: 50.0 mg/kg/injection, schedule: Q01DX001 (ip), vehicle: carboxymethylcellulose (CMC)
[14] = dose: 100.0 mg/kg/injection, schedule: Q01DX001 (ip), vehicle: carboxymethylcellulose (CMC)
[15] = dose: 200.0 mg/kg/injection, schedule: Q01DX001 (ip), vehicle: carboxymethylcellulose (CMC)
[16] = dose: 100.0 mg/kg/injection, schedule: Q01DX001 (ip), vehicle: saline
[17] = dose: 200.0 mg/kg/injection, schedule: Q01DX001 (ip), vehicle: saline
[18] = dose: 400.0 mg/kg/injection, schedule: Q01DX001 (ip), vehicle: saline
[19] = dose: 400.0 mg/kg/injection, schedule: Q04DX002 (ip), vehicle: Klucel (hydroxypropylcellulose) (HPC)

Measured: T/C

O=C(CNC(=O)c1ccccc1)N/N=C/c1ccc(Cl)cc1Cl
inactive: [1] 94 % of control | [2] 89 % of control | [3] 98 % of control

CCOC(=O)C(=O)C1CCCC1=O (centres undefined)
inactive: [1] 102 % of control | [4] 92 % of control | [2] 98 % of control | [5] 100 % of control | [3] 96 % of control | [6] 94 % of control

Cc1cc2[nH]c(=O)c(=O)[nH]c2cc1C
inactive: dose: 50.0 mg/kg/injection, schedule: Q04DX003 (ip), vehicle: Klucel (hydroxypropylcellulose) (HPC) 104 % of control | [7] 105 % of control | [8] 94 % of control | [9] 100 % of control | [10] 100 % of control

CC(=O)Nc1ccccc1C#N
inactive: dose: 100.0 mg/kg/injection, schedule: Q04DX003 (ip), vehicle: saline sonified 104 % of control | dose: 200.0 mg/kg/injection, schedule: Q04DX003 (ip), vehicle: saline sonified 101 % of control | dose: 400.0 mg/kg/injection, schedule: Q04DX003 (ip), vehicle: saline sonified 97 % of control

COC1OC2COC(C2OS(=O)(=O)c2ccc(C)cc2)C1OS(=O)(=O)c1ccc(C)cc1 (centres undefined)
inactive: dose: 50.0 mg/kg/injection, schedule: Q04DX002 (ip), vehicle: Klucel (hydroxypropylcellulose) (HPC) 94 % of control | [11] 94 % of control | [12] 98 % of control

NC1=CC(=O)c2ccccc2C1=O
inactive: dose: 15.6 mg/kg/injection, schedule: Q01DX Z (ip), vehicle: other 112 % of control | dose: 62.5 mg/kg/injection, schedule: Q01DX Z (ip), vehicle: other 106 % of control | [4] 103 % of control | [5] 98 % of control

SC1(S)CN2CCC1CC2
inactive: dose: 6.25 mg/kg/injection, schedule: Q01DX009 (ip), vehicle: saline 96 % of control | dose: 6.25 mg/kg/injection, schedule: Q04DX003 (ip), vehicle: saline 105 % of control | dose: 12.5 mg/kg/injection, schedule: Q01DX009 (ip), vehicle: saline 94 % of control | dose: 12.5 mg/kg/injection, schedule: Q04DX003 (ip), vehicle: saline 91 % of control | dose: 25.0 mg/kg/injection, schedule: Q04DX003 (ip), vehicle: saline 93 % of control

C1CCc2c(sc3c2CCCC3)C1
inactive: [13] 98 % of control | [14] 104 % of control | [15] 98 % of control | dose: 400.0 mg/kg/injection, schedule: Q01DX001 (ip), vehicle: carboxymethylcellulose (CMC) 107 % of control

COC1OC(CO)C(O)C1OS(C)(=O)=O (centres undefined)
inactive: [16] 101 % of control | [17] 103 % of control | [18] 101 % of control

CCOC(=O)C(C(=O)OCC)C(CC)c1ccccc1 (centres undefined)
inactive: [1] 101 % of control | dose: 100.0 mg/kg/injection, schedule: Q04DX002 (ip), vehicle: saline with Tween-80 103 % of control | [2] 92 % of control | dose: 200.0 mg/kg/injection, schedule: Q04DX002 (ip), vehicle: saline with Tween-80 100 % of control | [3] 95 % of control | dose: 400.0 mg/kg/injection, schedule: Q04DX002 (ip), vehicle: saline with Tween-80 95 % of control

BrC1(Br)C23CC=CCC12CCCC3 (centres undefined)
inactive: dose: 100.0 mg/kg/injection, schedule: Q04DX003 (ip), vehicle: saline 95 % of control | dose: 200.0 mg/kg/injection, schedule: Q04DX003 (ip), vehicle: saline 100 % of control | dose: 400.0 mg/kg/injection, schedule: Q04DX003 (ip), vehicle: saline 105 % of control

Cc1cn2nnnc2nc1-c1ccccc1O
inactive: [11] 98 % of control | [12] 91 % of control | [19] 94 % of control

CN/N=C/c1[nH]c(=O)[nH]c(=O)c1C
inactive: [16] 93 % of control | [17] 96 % of control | [18] 104 % of control

Oc1ccc(C2CCc3ccccc32)cc1 (centres undefined)
inactive: [7] 100 % of control | [8] 95 % of control | [9] 104 % of control | [10] 100 % of control | dose: 400.0 mg/kg/injection, schedule: Q01DX009 (ip), vehicle: Klucel (hydroxypropylcellulose) (HPC) 95 % of control | dose: 400.0 mg/kg/injection, schedule: Q04DX003 (ip), vehicle: Klucel (hydroxypropylcellulose) (HPC) 93 % of control

CSc1nc(N)n(C)n1
inactive: dose: 100.0 mg/kg/injection, schedule: Q04DX002 (ip), vehicle: saline 123 % of control | dose: 200.0 mg/kg/injection, schedule: Q04DX002 (ip), vehicle: saline 104 % of control | dose: 400.0 mg/kg/injection, schedule: Q04DX002 (ip), vehicle: saline 93 % of control

O=C(O)c1cccn1-c1cccc2c(-n3cccc3C(=O)O)cccc12
inactive: dose: 50.0 mg/kg/injection, schedule: Q04DX002 (ip), vehicle: saline + alcohol 99 % of control | dose: 100.0 mg/kg/injection, schedule: Q04DX002 (ip), vehicle: saline + alcohol 89 % of control | dose: 200.0 mg/kg/injection, schedule: Q04DX002 (ip), vehicle: saline + alcohol 96 % of control

CC[N+](CC)(CC)CC(=O)NCc1ccco1
inactive: [13] 105 % of control | dose: 50.0 mg/kg/injection, schedule: Q01DX009 (ip), vehicle: carboxymethylcellulose (CMC) 103 % of control | dose: 50.0 mg/kg/injection, schedule: Q04DX003 (ip), vehicle: carboxymethylcellulose (CMC) 94 % of control | [14] 99 % of control | dose: 100.0 mg/kg/injection, schedule: Q01DX009 (ip), vehicle: carboxymethylcellulose (CMC) 103 % of control and 104 % of control | dose: 100.0 mg/kg/injection, schedule: Q04DX002 (ip), vehicle: carboxymethylcellulose (CMC) 95 % of control and 103 % of control | dose: 100.0 mg/kg/injection, schedule: Q04DX003 (ip), vehicle: carboxymethylcellulose (CMC) 102 % of control | [15] 99 % of control | dose: 200.0 mg/kg/injection, schedule: Q01DX009 (ip), vehicle: carboxymethylcellulose (CMC) 101 % of control and 90 % of control | dose: 200.0 mg/kg/injection, schedule: Q04DX002 (ip), vehicle: carboxymethylcellulose (CMC) 97 % of control and 92 % of control | dose: 200.0 mg/kg/injection, schedule: Q04DX003 (ip), vehicle: carboxymethylcellulose (CMC) 102 % of control | dose: 400.0 mg/kg/injection, schedule: Q04DX002 (ip), vehicle: carboxymethylcellulose (CMC) 90 % of control

O=C(O)C1=C(C2CCCCC2)C(=O)c2ccccc21
inactive: dose: 75.0 mg/kg/injection, schedule: Q01DX001 (ip), vehicle: other 112 % of control | dose: 150.0 mg/kg/injection, schedule: Q01DX001 (ip), vehicle: other 93 % of control | dose: 300.0 mg/kg/injection, schedule: Q01DX001 (ip), vehicle: other 102 % of control

Cc1cccc(SC(=O)Nc2ccc([N+](=O)[O-])cc2Cl)c1
inactive: [11] 100 % of control | [12] 116 % of control | [19] 92 % of control

Brc1cscc1Cc1cscc1Br
inactive: dose: 100.0 mg/kg/injection, schedule: Q01DX001 (ip), vehicle: saline with Tween-80 91 % of control | dose: 200.0 mg/kg/injection, schedule: Q01DX001 (ip), vehicle: saline with Tween-80 97 % of control | dose: 400.0 mg/kg/injection, schedule: Q01DX001 (ip), vehicle: saline with Tween-80 94 % of control

O=C(N/N=C/c1ccncc1)c1ccccc1
inactive: dose: 100.0 mg/kg/injection, schedule: Q01DX009 (ip), vehicle: saline 112 % of control | dose: 200.0 mg/kg/injection, schedule: Q01DX009 (ip), vehicle: saline 112 % of control

CN(C)C(CCN1CCCCC1)CN1CCCCC1 (centres undefined)
inactive: [16] 100 % of control | [17] 96 % of control | [18] 90 % of control

CCN(CC)C(=O)Cn1ccc(O)cc1=O
inactive: [4] 109 % of control | [5] 98 % of control | [6] 104 % of control

CCOP(=O)(Cc1ccc(N(CCI)CCI)cc1)OCC
inactive: dose: 75.0 mg/kg/injection, schedule: Q01DX001 (ip), vehicle: saline 116 % of control | dose: 150.0 mg/kg/injection, schedule: Q01DX001 (ip), vehicle: saline 116 % of control
